According to US20240174684A1, “INHIBITORS OF cGAS ACTIVITY AS THERAPEUTIC AGENTS” (BELLBROOK LABS, LLC, priority 2021, published 2024):
Where two headings read alike, the source gives them in different places.

Assays:
[1] = test system: IFNβ production in THP-1 cells; assay: IFNβ ELISA in THP-1 cells; assay type: cell-based, human; details: Homo sapiens; THP-1 cells
Source text: Cellular assays: The human monocyte cell line THP-1 and human primary PBMCs were used to evaluate the cellular activity of compounds with good biochemical potency. These cells produce a robust cGAS/STING-dependent type I IFN response when stimulated with dsDNA and other pathogen-associated molecular patterns, which was detected using a standard ELISA for IFNβ (R&D Systems). The TBK1 inhibitor, BX-795, which acts downstream of cGAS/STING, was used as a probe.
CETSA was also used to confirm that the compounds are binding to cGAS in cells; THP-1 cells are used for this analysis. Compounds were tested in dose response mode by incubating with cells for 1.5 hours at 37° C., followed by pelleting and re-suspending in PBS, heating to 51.5° C. for 3 min and cooling to room temp. Cells were then lysed, debris, including denatured cGAS, was pelleted and the supernatant was analyzed for soluble cGAS by Western Blot using anti-cGAS primary Ab (Cell Signaling). Band intensity was analyzed using Image J software. Stimulation with cGAMP directly activates STING, circumventing cGAS; this was used to determine if compounds had effects on downstream components of cGAS/STING signaling. The IFN-6 ELISA was used as the primary measure of cellular potency and selectivity (Table 3) and used the reporter gene assays for assessing off-target activity with other pattern recognition receptors.
The ICso values for IFNB ELISA stimulated with THP-1, PBMC, DNA, and cGAMP were determined for several exemplary compounds of the invention, and are provided in Table 3 where A represents <1 μM; B represents 1-2.5 μM; C represents 2.5-10 μM; D represents 10-20 μM; and E represents >20 μM.

cGAS = cGAS (Homo sapiens, UniProt Q8N884); assay: Transcreener cGAS enzymatic assay (FP); assay type: biochemical
cGAS, sequence (Q8N884 whole entry): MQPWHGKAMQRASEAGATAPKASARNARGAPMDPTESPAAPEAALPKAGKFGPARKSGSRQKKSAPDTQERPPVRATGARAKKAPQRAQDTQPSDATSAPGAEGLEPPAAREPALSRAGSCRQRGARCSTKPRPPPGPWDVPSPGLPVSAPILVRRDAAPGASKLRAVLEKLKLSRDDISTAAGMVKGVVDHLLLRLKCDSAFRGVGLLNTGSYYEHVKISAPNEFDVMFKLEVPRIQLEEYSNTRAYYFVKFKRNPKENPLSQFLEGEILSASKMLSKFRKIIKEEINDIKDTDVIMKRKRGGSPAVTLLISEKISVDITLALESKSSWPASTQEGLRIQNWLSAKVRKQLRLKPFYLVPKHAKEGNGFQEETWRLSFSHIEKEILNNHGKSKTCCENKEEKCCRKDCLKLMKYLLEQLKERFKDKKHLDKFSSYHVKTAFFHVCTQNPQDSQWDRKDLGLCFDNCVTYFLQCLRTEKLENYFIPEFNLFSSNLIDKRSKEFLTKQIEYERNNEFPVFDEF
Procedure: Structural, biochemical and biophysical analysis and selectivity profiling: Potency and MOA studies, including Mn^2+ sensitivity, were performed using the Transcreener cGAS enzymatic assay, which is manufactured at BellBrook Labs (Fitchburg, Wisconsin, USA). This homogenous cGAS enzymatic assay was developed with fluorescence polarization (FP) and time-resolved Forster resonance energy transfer (TR-FRET) readouts, as described in International Patent Publication WO 2020/142729, incorporated by reference herein in its entirety. Plates are read on a PHERAstar FSX multimode reader (BMG). The compounds of the disclosure were tested for inhibition of cGAS ([…]) using this cGAS enzymatic assay under standard conditions (100 μM ATP and GTP, 62.5 nM bp ISD, 60 minute reactions), high ATP and GTP (1 mM) to mimic physiological conditions, in the presence of 200 μM MnCl2, and with mouse cGAS under standard conditions.
The IC50 values for FP under standard and under physiological conditions were determined for several exemplary compounds of the invention. The relative activities for FP Standard IC50 are shown in Table 2 below, where A represents <50 nM; B represents 50-100 nM; C represents 100-200 nM; D represents 200 nM-1μM; and E represents 1-10 μM. For the relative activities for FP Physiological IC50, A′ represents <200 nM; B′ represents 200-500 nM; C′ represents 500 nM-1μM; D′ represents 1-5 μM; and E′ represents >5 μM.

MDR1 (P-glycoprotein) = assay: MDCK-MDR1 permeability A→B; assay type: in vitro ADME, Canine; details: dog; MDCK cells expressing human MDR1, A→B; read-out: MDCK-MDR Permeability A→B
Procedure: (§1) ADME studies: Compound A and the compounds of the disclosure were tested for aqueous solubility (KSOL), metabolic stability (human and mouse […]) and permeability (Caco-2 and/or MDR1-MDCK cells) to provide an initial indication of oral bioavailability.
(§2) The favorable physicochemical properties are reflected in promising results in in vitro ADME tests. […] Metabolic stability, which was routinely measured with mouse and human hepatocytes, is outstanding, with t, greater than 2 hours for all of the compounds of the disclosure in which it has been measured. Cell permeability was measured using MDCK cells expressing human MDR1 (P-glycoprotein) to assess passive permeability as well as active transport out of the cell. […] Numerous compounds in Table 1 meet these permeability criteria, which is consistent with their design for TPSA <140 Å^2 and increased lipophilicity.
(§3) The MDCK-MDR1 permeability A ->B is shown in Table 2 below, where A represents 5-10 cm/s×10^−6; B represents 1-5 cm/s×10^−6; and C represents <1 cm/ss×10^−6. The metabolic stability half time, in both mouse and human hepatocytes, is also shown in Table 2 below, where A′ represents 100-200 minutes; B′ represents 200-300 minutes; and C′ represents >300 minutes.

[2] = test system: MDCK cells expressing human MDR1 (P-glycoprotein); assay: MDCK-MDR1 permeability A→B; assay type: in vitro ADME, Canine
Procedure: as §1, §2, §3

[3] = high ATP and GTP (1 mM) to mimic physiological conditions, read-out: IC50 FP Physiological
[4] = standard conditions: 100 μM ATP and GTP, 62.5 nM bp ISD, 60 minute reactions, read-out: IC50 FP Standard

| Compound | IC50 [1] [nM] | IC50 (cGAS; [3]) [nM] | IC50 (cGAS; [4]) [nM] | Papp A→B (MDR1 (P-glycoprotein)) [×10⁻⁶ cm/s] | MDCK-MDR Permeability A→B [2] |
| --- | --- | --- | --- | --- | --- |
| Cc1cccc(NC(=O)C[C@H]2C[C@@H](C(=O)O)N(c3nc(C)nc4c3oc3ccccc34)C2)c1 [Compound 16, (28.4R)-1-(2-methylbenzofuro[3,2-d]pyrimidin-4-yl)-4-(2-oxo-2-(m-tolylamino)ethyl)pyrrolidine-2-carboxylic acid] | > 20000 | 1000 to 5000 | 200 to 1000 | 1 to 5 |  |
| Cc1nc(N2C[C@@H](CC(=O)Nc3cccc(F)c3)C[C@H]2C(=O)O)c2oc3ccccc3c2n1 [Compound 19, (2S,4R)-4-(2-((3-fluorophenyl)amino)-2-oxoethyl)-1-(2-methylbenzofuro[3,2-d]pyrimidin-4-yl)pyrrolidine-2-carboxylic acid] | 10000 to 20000 | 1000 to 5000 | 200 to 1000 | 1 to 5 |  |
| Cc1nc(N2C[C@@H](CC(=O)Nc3ccc(Cl)cc3)C[C@H]2C(=O)O)c2oc3ccccc3c2n1 [Compound 21, (28.4R)-4-(2-((4-chlorophenyl)amino)-2-oxoethyl)-1-(2-methylbenzofuro[3,2-d]pyrimidin-4-yl)pyrrolidine-2-carboxylic acid] | 10000 to 20000 | 1000 to 5000 | 100 to 200 | 1 to 5 |  |
| Cc1ccc(NC(=O)C[C@H]2C[C@@H](C(=O)O)N(c3nc(C)nc4c3oc3ccccc34)C2)cc1 [Compound 15, (2S,4R)-1-(2-methylbenzofuro[3,2-d]pyrimidin-4-yl)-4-(2-oxo-2-(p-tolylamino)ethyl)pyrrolidine-2-carboxylic acid] | > 20000 | 1000 to 5000 | 200 to 1000 | 1 to 5 |  |
| COc1cccc(-c2ccc(NC(=O)C[C@H]3C[C@@H](C(=O)O)N(c4nc(C)nc5c4oc4ccccc45)C3)cc2)c1 [Compound 50, (2S,4R)-4-(2-((3′-methoxy-[1,1′-biphenyl]-4-yl)amino)-2-oxoethyl)-1-(2-methylbenzofuro[3,2-d]pyrimidin-4-yl)pyrrolidine-2-carboxylic acid] | < 1000 | 200 to 500 | < 50 | 5 to 10 |  |
| Cc1nc(N2C[C@@H](CC(=O)Nc3ccccc3Cl)C[C@H]2C(=O)O)c2oc3ccccc3c2n1 [Compound 23, (28.4R)-4-(2-((2-chlorophenyl)amino)-2-oxoethyl)-1-(2-methylbenzofuro[3,2-d]pyrimidin-4-yl)pyrrolidine-2-carboxylic acid] | > 20000 | > 5000 | 200 to 1000 | 1 to 5 |  |
| Cc1nc(N2C[C@@H](CC(=O)Nc3ccc(-c4ccccc4)cn3)C[C@H]2C(=O)O)c2oc3ccccc3c2n1 [Compound 67, (2S,4R)-1-(2-methylbenzofuro[3,2-d]pyrimidin-4-yl)-4-(2-oxo-2-((5-phenylpyridin-2-yl)amino)ethyl)pyrrolidine-2-carboxylic acid] | 2500 to 10000 | 500 to 1000 | 50 to 100 | 5 to 10 |  |
| Cc1nc(N2C[C@@H](CC(=O)Nc3ccc(N4CCN(C)CC4)cc3)C[C@H]2C(=O)O)c2oc3ccccc3c2n1 [Compound 9, (2S,4R)-1-(2-methylbenzofuro[3,2-d]pyrimidin-4-yl)-4-(2-((4-(4-methylpiperazin-1-yl)phenyl)amino)-2-oxoethyl)pyrrolidine-2-carboxylic acid] | > 20000 | > 5000 | 1000 to 10000 |  | C (C represents <1 cm/ss×10^−6) |
| Cc1nc(N2C[C@@H](CC(=O)Nc3ccc(F)cc3)C[C@H]2C(=O)O)c2oc3ccccc3c2n1 [Compound 18, (2S,4R)-4-(2-((4-fluorophenyl)amino)-2-oxoethyl)-1-(2-methylbenzofuro[3,2-d]pyrimidin-4-yl)pyrrolidine-2-carboxylic acid] | > 20000 | 1000 to 5000 | 200 to 1000 |  | C (C represents <1 cm/ss×10^−6) |
| Cc1nc(N2C[C@@H](CC(=O)Nc3ccccc3C)C[C@H]2C(=O)O)c2oc3ccccc3c2n1 [Compound 17, (2S,4R)-1-(2-methylbenzofuro[3,2-d]pyrimidin-4-yl)-4-(2-oxo-2-(o-tolylamino)ethyl)pyrrolidine-2-carboxylic acid] | > 20000 | > 5000 | 200 to 1000 |  | C (C represents <1 cm/ss×10^−6) |
| Cc1nc(N2C[C@@H](CC(=O)Nc3cccc(N4CCOCC4)c3)C[C@H]2C(=O)O)c2oc3ccccc3c2n1 [Compound 57, (2S,4R)-1-(2-methylbenzofuro[3,2-d]pyrimidin-4-yl)-4-(2-((3-morpholinophenyl)amino)-2-oxoethyl)pyrrolidine-2-carboxylic acid] | > 20000 | 1000 to 5000 | 100 to 200 |  | C (C represents <1 cm/ss×10^−6) |
| Cc1nc(N2C[C@@H](CC(=O)Nc3ccc4cn[nH]c4c3)C[C@H]2C(=O)O)c2oc3ccccc3c2n1 [Compound 30, (28.4R)-4-(2-((1H-indazol-6-yl)amino)-2-oxoethyl)-1-(2-methylbenzofuro[3,2-d]pyrimidin-4-yl)pyrrolidine-2-carboxylic acid] | > 20000 | 1000 to 5000 | 100 to 200 |  | C (C represents <1 cm/ss×10^−6) |
| Cc1nc(N2C[C@@H](CC(=O)Nc3ccc(Cc4ccccn4)cc3)C[C@H]2C(=O)O)c2oc3ccccc3c2n1 [Compound 56, (2S,4R)-1-(2-methylbenzofuro[3,2-d]pyrimidin-4-yl)-4-(2-oxo-2-((4-(pyridin-2-ylmethyl)phenyl)amino)ethyl)pyrrolidine-2-carboxylic acid] | > 20000 | 1000 to 5000 | 200 to 1000 |  | C (C represents <1 cm/ss×10^−6) |
| Cc1nc(N2C[C@@H](CC(=O)Nc3cccc(C(F)(F)F)c3)C[C@H]2C(=O)O)c2oc3ccccc3c2n1 [Compound 25, (2S,4R)-1-(2-methylbenzofuro[3,2-d]pyrimidin-4-yl)-4-(2-oxo-2-((3-(trifluoromethyl)phenyl)amino)ethyl)pyrrolidine-2-carboxylic acid] | 10000 to 20000 | > 5000 | 200 to 1000 | 1 to 5 |  |
| Cc1nc(N2C[C@@H](CC(=O)Nc3ccc(-c4cn[nH]c4)cc3)C[C@H]2C(=O)O)c2oc3ccccc3c2n1 [Compound 10, (2S,4R)-4-(2-((4-(1H-pyrazol-4-yl)phenyl)amino)-2-oxoethyl)-1-(2-methylbenzofuro[3,2-d]pyrimidin-4-yl)pyrrolidine-2-carboxylic acid] | > 20000 | 200 to 500 | < 50 |  | C (C represents <1 cm/ss×10^−6) |
| COc1ccccc1NC(=O)C[C@H]1C[C@@H](C(=O)O)N(c2nc(C)nc3c2oc2ccccc23)C1 [Compound 14, (28.4R)-4-(2-((2-methoxyphenyl)amino)-2-oxoethyl)-1-(2-methylbenzofuro[3,2-d]pyrimidin-4-yl)pyrrolidine-2-carboxylic acid] | > 20000 | > 5000 | 1000 to 10000 |  | C (C represents <1 cm/ss×10^−6) |
